According to publication PMC9674958 (Proceedings of the National Academy of Sciences of the …, 2022):

Key:
[1] = test system: tyrosinase (TYR) of N. parkeri; assay: absorbance at […] nm, Lineweaver-Burk fit; format: biochemical, Nanorana parkeri; settings: 15 uM CuSO4, 50 mM Na2HPO4, pH 6.2; L-DOPA 0.625-10 mM
[2] = test system: tyrosinase (TYR) of Q. spinosa; assay: absorbance at […] nm, Lineweaver-Burk fit; format: biochemical, Quasipaa spinosa; settings: 15 uM CuSO4, 50 mM Na2HPO4, pH 6.2; L-DOPA 0.625-10 mM

`N[C@@H](Cc1ccc(O)c(O)c1)C(=O)O` [L-DOPA] was tested, and the Km [1] was 0.130 ± 0.073 mM/L and the Km [2] was 0.1663 ± 0.117 mM/L.
